Laboratory results: patent US20120130146A1, “CONTINUOUS ADMINISTRATION OF CILENGITIDE IN CANCER TREATMENTS” (Merck Patent GmbH, priority 2009, published 2012)

Assays:
[1] = test system: human umbilical vein endothelial cells (HUVECs); experiment: Growth (Alamar Blue) assay on HUVEC, Example 5; type: cell-based; conditions: Homo sapiens
Source text: (§1) The methods established and described in detail previously (Goodman and Hahn a; b) were used to measure the effect of combinations of integrin inhibitors and chemotherapeutics on carcinoma cell and human endothelial cell proliferation.
(§2) Points were run in duplicate or in triplicate. Reagent blanks, containing media plus Alamar Blue without cells, were run on each plate. Blank values were subtracted from test values and were routinely 5-10% of uninhibited control values.
(§3) 5.5 Methods of Evaluation and Statistics Chemotherapeutic agents and αv-integrin blockers were serially diluted alone or together (combination therapy). In some assays the chemotherapeutic agent was serially diluted alone or in combination with of alpha-v integrin blocker. Growth inhibition curves were plotted and a shift of the combination therapy curve to lower concentrations in relation to the single agent curves was interpreted as an additional effect, produced by combination versus monotherapy.
(§4) The αv-integrin competitive inhibitor Cilengitide (EMD 121974) was tested alone and in combination with vinorelbine in a serum growth stimulation assay using human carcinoma cells or human umbilical vein endothelial cells (HUVECs). In these assays cells are cultured in serum, or in an endothelial growth stimulation medium (Goodman & Hahn).

A549 = experiment: Serum growth stimulation assay on A549 NSCLC cells, Example 5; type: cell-based, human; conditions: for EC50: Homo sapiens, NSCLC A549, chemotherapeutic alone or + Cilengitide
Source text: as §1, §2, §3, §4

A498 = experiment: Cell proliferation assay on A498 renal carcinoma cells; type: cell-based, human; conditions: for EC50: Homo sapiens, Renal A498, chemotherapeutic alone or + Cilengitide
Source text: as §1, §2, §3, §4
Cilengitide concentration is 2 μM (constant).

Detroit 562 = experiment: Cell proliferation assay on SCCHN Detroit 562 cells; type: cell-based, human
[2] = in combination with 2 μM Cilengitide

| SMILES | IC50 ([1]; agent alone) [nM] | IC50 [1, 2] [nM] | EC50 (A549) [nM] | EC50 (A498) [nM] | enhancement of growth inhibition by the presence of cilengitide (A549; A549) | enhancement of growth inhibition by the presence of cilengitide (Detroit 562) | enhancement of growth inhibition by the presence of cilengitide (A498; A498) |
| --- | --- | --- | --- | --- | --- | --- | --- |
| CC(=O)O[C@H]1C(=O)[C@@]2(C)[C@H]([C@H](OC(=O)c3ccccc3)[C@]3(O)C[C@H](OC(=O)[C@H](O)[C@@H](NC(=O)c4ccccc4)c4ccccc4)C(C)=C1C3(C)C)[C@]1(OC(C)=O)CO[C@@H]1C[C@@H]2O [Paclitaxel] | 10 | 0.05 | 8 | 100 |  |  |  |
| CCC1=C[C@@H]2CN(C1)Cc1c([nH]c3ccccc13)[C@@](C(=O)OC)(c1cc3c(cc1OC)N(C)[C@H]1[C@@](O)(C(=O)OC)[C@H](OC(C)=O)[C@]4(CC)C=CCN5CC[C@]31[C@@H]54)C2 [Vinorelbine] | 20 | 0.8 | 8 | 60 | synergistically enhanced | synergistically enhanced | synergistically enhanced |
